For experiment [1], the target named is T1, SIK2 (Homo sapiens, UniProt Q9H0K1). The experiment in a line: SIK2 Enzymatic Assay High Version 2 (High ATP). It is filed as biochemical. Summed up: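 At room temperature, enzyme (6 nM, 2× final) was preincubated with compound for 30 min, then 6 mM ATP and 400 μM HDAC5tide (both 2× final) were added for 2 h. ADP formed was measured by ADP-Glo Max (2 h reagent, 1 h detection) using luminescence.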

For experiment [2], the target named is T1, SIK2. The experiment can be described thus: SIK2 Enzymatic Assay Version 1 (ADP Glo). It is filed as biochemical. The following applies: enzyme 0.6 nM, 160 μM ATP and 140 μM HDAC5tide (each 2× final concentration); 30 minutes pre-incubation, 4 hours; ADPGlo luminescence; read-out: SIK2 ADP Glo IC50 (μM) (Test Example 1). As to the method:
All steps were performed at room temperature. Compounds were pre-plated onto an assay plate using an Echo acoustic dispenser (Labcyte, E550 or E555) at 20 nL per well. Enzyme prepared in Assay Buffer at 0.6 nM (2× final concentration) was added at 2 μL per well using the Multidrop Combi (Thermo Fisher—used for all additions in this assay) to the assay plate, spun for 1 min at 800-850 rpm (Allegra 6KR Beckman Coulter centrifuge), and incubated with compound for 30 minutes.
One column of wells was dedicated to a no-peptide negative control (containing only ATP). ADPGlo Reagent (prepared and aliquoted as per manufacturer instructions) was then added at 2 μL per well, spun and incubated for 40 min. ADPGlo Detection (prepared and aliquoted as per manufacturer instructions) was added at 2 μL per well to the assay plate, which was spun and incubated for at least 30 min. The plate was then read on the Pherastar (BMG Labtech) using a luminescence read. Gain was set by the 0.1 mM concentration of ADP wells in the ADP/ATP standard curve plate generated as per manufacturer instructions.
For orientation: In ADP-Glo the light output rises with the ADP produced.

Structures are written as SMILES.

T1 sequence (Q9H0K1 whole entry, species assumed): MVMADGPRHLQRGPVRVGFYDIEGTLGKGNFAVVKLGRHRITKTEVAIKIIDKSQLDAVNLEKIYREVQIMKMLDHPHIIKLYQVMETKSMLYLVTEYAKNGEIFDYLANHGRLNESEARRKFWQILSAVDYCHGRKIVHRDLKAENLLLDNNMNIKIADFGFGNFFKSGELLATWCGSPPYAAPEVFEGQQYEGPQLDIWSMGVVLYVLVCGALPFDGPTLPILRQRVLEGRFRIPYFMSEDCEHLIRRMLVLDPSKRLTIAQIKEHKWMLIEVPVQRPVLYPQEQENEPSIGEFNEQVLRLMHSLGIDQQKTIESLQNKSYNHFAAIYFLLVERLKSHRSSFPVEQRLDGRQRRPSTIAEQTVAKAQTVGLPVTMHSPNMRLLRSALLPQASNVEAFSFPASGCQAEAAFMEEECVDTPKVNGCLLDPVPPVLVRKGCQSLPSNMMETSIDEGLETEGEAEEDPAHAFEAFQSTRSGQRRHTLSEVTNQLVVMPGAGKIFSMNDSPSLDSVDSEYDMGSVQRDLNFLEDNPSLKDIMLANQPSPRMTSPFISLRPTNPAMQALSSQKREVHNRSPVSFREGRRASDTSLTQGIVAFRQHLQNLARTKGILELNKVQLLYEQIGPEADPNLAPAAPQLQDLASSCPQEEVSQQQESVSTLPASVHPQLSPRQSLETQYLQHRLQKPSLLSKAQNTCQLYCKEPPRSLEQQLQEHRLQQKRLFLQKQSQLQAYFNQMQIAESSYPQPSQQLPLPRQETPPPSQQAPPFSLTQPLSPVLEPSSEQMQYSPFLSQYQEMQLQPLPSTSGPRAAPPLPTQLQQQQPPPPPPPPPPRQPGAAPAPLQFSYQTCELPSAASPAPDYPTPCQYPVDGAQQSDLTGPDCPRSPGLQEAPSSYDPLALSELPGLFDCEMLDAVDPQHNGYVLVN

On to `N#Cc1cc(-c2ccn3nc(NC(=O)C4CC4)cc3c2)c(OCC2(N)CCC2)cn1` [Example 44, N-[5-[5-[(1-aminocyclobutyl)methoxy]-2-cyano-4-pyridyl]pyrazolo[1,5-a]pyridin-2-yl]cyclopropanecarboxamide], for which the IC50 – broadly, the concentration that gives 50% inhibition – at SIK2 [1] came to 26 nM; on SIK2 [2], 0.00124 µM.

Regarding `Cc1cc(-c2ccn3nc(Nc4cc(C)nc(C)n4)cc3c2)c(OC[C@@H]2CNCCO2)cn1` [Example 432, N-(2,6-dimethylpyrimidin-4-yl)-5-[2-methyl-5-[[(2S)-morpholin-2-yl]methoxy]-4-pyridyl]pyrazolo[1,5-a]pyridin-2-amine], the IC50 at SIK2 [1] was 1.71 nM; on SIK2 [2] it was 0.000345 µM.

On to `N#CCN1CC[C@H](Oc2cnc(C#N)cc2-c2ccn3nc(NC(=O)C4CC4)cc3c2)C1` [Example 114, (S)—N-[5-[2-cyano-5-[(3S)-1-(cyanomethyl)pyrrolidin-3-yl]oxy-4-pyridyl]pyrazolo[1,5-a]pyridin-2-yl]cyclopropanecarboxamide], for which the IC50 against SIK2 [1] stood at 6.58 nM; on SIK2 [2], 0.000337 µM.

Turning to `N#Cc1cc(-c2ccn3nc(NC(=O)C4CC4)cc3c2)c(OCC2(O)CCC2)cn1` [Example 41, N-[5-[2-cyano-5-[(1-hydroxycyclobutyl)methoxy]-4-pyridyl]pyrazolo[1,5-a]pyridin-2-yl]cyclopropanecarboxamide], the results for the IC50 at SIK2 [1] and at SIK2 [2] were 58.5 nM and 0.00243 µM, respectively.

Consider `N#Cc1cc(-c2ccn3nc(NC(=O)C4CC4)cc3c2)c(OC[C@H]2CC[C@H](O)CC2)cn1` [Example 53, trans-N-(5-(2-Cyano-5-(((1r,4r)-4-hydroxycyclohexyl)methoxy)pyridin-4-yl)pyrazolo[1,5-a]pyridin-2-yl)cyclopropanecarboxamide], for which the IC50 against SIK2 [1] was determined as 13.5 nM; on SIK2 [2], 0.000641 µM.

Regarding `CC(=O)N1CCC(Oc2cnc(C#N)cc2-c2ccn3nc(NC(=O)C4CC4)cc3c2)C1` (single isomer, unassigned) [Example 56, (*R)—N-(5-(5-((1-Acetylpyrrolidin-3-yl)oxy)-2-cyanopyridin-4-yl)pyrazolo[1,5-a]pyridin-2-yl)cyclopropanecarboxamide], the IC50 at SIK2 [1] was 69.2 nM; at SIK2 [2], 0.0036 µM.

With `C[C@@](O)(COc1cnc(C#N)cc1-c1ccn2nc(NC(=O)C3CC3)cc2c1)C(F)(F)F` (single isomer, unassigned) [Example 49, (*R)—N-(5-(2-Cyano-5-(3,3,3-trifluoro-2-hydroxy-2-methylpropoxy)pyridin-4-yl)pyrazolo[1,5-a]pyridin-2-yl)cyclopropanecarboxamide], the IC50 was found to be 25.2 nM on SIK2 [1] and 0.000957 µM on SIK2 [2].

For `N#Cc1cc(-c2ccn3nc(NC(=O)C4CC4)cc3c2)c(OCC2CNC(=O)C2)cn1` (racemic) [Example 33, rac-N-(5-(2-cyano-5-((5-oxopyrrolidin-3-yl)methoxy)pyridin-4-yl)pyrazolo[1,5-a]pyridin-2-yl)cyclopropanecarboxamide], the IC50 amounted to 93.1 nM against SIK2 [1] and 0.00416 µM at SIK2 [2].

Consider `Cc1cc(-c2ccn3nc(NC(=O)C4CC4)cc3c2)c(O[C@@H]2CC[C@H](O)C2)cn1` (single isomer, unassigned) [Example 180, cis-N-(5-(5-(((1*R,3*S)-3-hydroxycyclopentyl)oxy)-2-methylpyridin-4-yl)pyrazolo[1,5-a]pyridin-2-yl)cyclopropanecarboxamide], for which the IC50 on SIK2 [1] amounted to 60.9 nM; on SIK2 [2], 0.00358 µM.

`CC(C)(O)COc1cnc(C#N)cc1-c1ccn2nc(NC(=O)C3CC3)cc2c1` [Example 52, N-[5-[2-Cyano-5-(2-hydroxy-2-methyl-propoxy)-4-pyridyl]pyrazolo[1,5-a]pyridin-2-yl]cyclopropanecarboxamide]: the half-maximal inhibitory concentration (IC50) against SIK2 [1] is 31.8 nM; at SIK2 [2] it was 0.00206 µM.

On to `CCOc1cnc(C)cc1-c1ccn2nc(NC(=O)C3CC3)cc2c1` [Example 752, N-[5-(5-ethoxy-2-methyl-4-pyridyl)pyrazolo[1,5-a]pyridin-2-yl]cyclopropanecarboxamide], for which the values for the half-maximal inhibitory concentration (IC50) against SIK2 [1] and at SIK2 [2] were 806 nM and 0.061 µM, respectively.
